The results in this text go back to PubChem BioAssay AID198 (DTP/NCI, 2004).

For the assay, the system named is B16 melanoma ip, C57BL/6 mice, median survival T/C. The assay can be described thus: NCI In Vivo Anticancer Drug Screen. Data for tumor model B16 Melanoma (intraperitoneal) in C57BL/6 mice. As to conditions: endpoint: median survival time, higher = longer survival. The method, then: The antitumor activity of compounds was measured in mice bearing transplantable tumors. Survival or tumor size were measured and the results are expressed as the measurement made in the treated group (T) divided by the measurement made in the vehicle treated control group (C). The tumor model used in this assay is B16 Melanoma (intraperitoneal) in C57BL/6 mice

Setting [1] is: dose: 3.13 mg/kg/injection, schedule: Q01DX009 (ip), vehicle: saline.
Setting [2] is: dose: 6.25 mg/kg/injection, schedule: Q01DX009 (ip), vehicle: saline.
The mark [3] stands for this setting: dose: 12.5 mg/kg/injection, schedule: Q01DX009 (ip), vehicle: saline.
Where [4] appears, read: dose: 25.0 mg/kg/injection, schedule: Q01DX009 (ip), vehicle: saline.
[5] abbreviates: dose: 50.0 mg/kg/injection, schedule: Q01DX009 (ip), vehicle: saline.
Where [6] appears, read: dose: 100.0 mg/kg/injection, schedule: Q01DX009 (ip), vehicle: saline.
[7] abbreviates: dose: 200.0 mg/kg/injection, schedule: Q01DX009 (ip), vehicle: saline.
Where [8] appears, read: dose: 0.03 mg/kg/injection, schedule: Q01DX009 (ip), vehicle: saline.
Setting [9] is: dose: 0.05 mg/kg/injection, schedule: Q01DX009 (ip), vehicle: saline.
Setting [10] is: dose: 62.5 mg/kg/injection, schedule: Q01DX009 (ip), vehicle: saline.
[11] abbreviates: dose: 125.0 mg/kg/injection, schedule: Q01DX009 (ip), vehicle: saline.
Setting [12] is: dose: 250.0 mg/kg/injection, schedule: Q01DX009 (ip), vehicle: saline.
[13] abbreviates: dose: 500.0 mg/kg/injection, schedule: Q01DX009 (ip), vehicle: saline.
Setting [14] is: dose: 31.3 mg/kg/injection, schedule: Q01DX009 (ip), vehicle: saline.

Values joined by “and” are separate entries in the source; they are usually repeats but may differ in a detail not shown here. Equal values may be shown once. Inconclusive results and toxic doses are left out. *1 amine or outer side, *2 acyl side, *3 side chain or, on linkers, in order; H or OH if unused. Where a SMILES comes first, the peptide text is derived from it. Bridges are numbered along the chain shown (N, C = ends). Roman numbers before positions name the chains, in order. [ ]: non-standard residue; d: D form. Actinocin(9to1) = Cc1c2oc3c(C)ccc(C(=O)[*:1])c3nc-2c(C(=O)[*:2])c(N)c1=O; aThr = C[C@H](O)[C@H](N)C(=O)O; NMeV = CN[C@H](C(=O)O)C(C)C; Sar = CNCC(=O)O

With `CN(C)CC(=O)c1ccc(O)c(O)c1`, the T/C (dose: 75.0 mg/kg/injection, schedule: Q01DX009 (ip), vehicle: saline) is 112 % of control; the T/C (dose: 150.0 mg/kg/injection, schedule: Q01DX009 (ip), vehicle: saline) is 109 % of control; the T/C (dose: 300.0 mg/kg/injection, schedule: Q01DX009 (ip), vehicle: saline) was 115 % of control; the T/C (dose: 600.0 mg/kg/injection, schedule: Q01DX009 (ip), vehicle: saline) was 121 % of control.

As to `CN(C)CCCN1c2ccccc2Sc2ccc(Cl)cc21`, the T/C by setting is: under setting [1], 100 % of control and 97 % of control; under setting [2], 100 % of control and 102 % of control; under setting [3], 111 % of control and 105 % of control; under setting [4], 100 % of control and 108 % of control.

In the case of `CC1([N+](=O)[O-])COP(=O)(NC2CCCC2)OC1` (centres undefined), the T/C under setting [5] is 100 % of control, the T/C under setting [6] was 96 % of control and the T/C under setting [7] was 96 % of control.

Consider `COC1=C(N)C(=O)c2nc(-c3nc(C(=O)O)c(C)c(-c4ccc(OC)c(OC)c4O)c3N)ccc2C1=O`, for which the T/C is, setting by setting: under setting [8], 103 % of control; under setting [9], 93 % of control and 100 % of control and 118 % of control.

`O=c1[nH]c(=O)c2n[nH]nc2[nH]1`: the T/C is 96 % of control under setting [10], 100 % of control under setting [11], 92 % of control under setting [12] and 92 % of control under setting [13].

With `CCCCc1ccc(NC(=O)N(CCCl)N=O)cc1`, the T/C is 200 % of control under setting [1] and 210 % of control under setting [2].

`CN(C)/N=N/c1nc[nH]c1C(N)=O`: the T/C reads like this: under setting [4], 116 % of control; under setting [5], 120 % of control; under setting [6], 150 % of control.

Consider `Cc1nc(N)sc1CCCl`, for which the T/C (dose: 10.0 mg/kg/injection, schedule: Q01DX009 (ip), vehicle: saline sonified) was 100 % of control; the T/C (dose: 20.0 mg/kg/injection, schedule: Q01DX009 (ip), vehicle: saline sonified) is 107 % of control; the T/C (dose: 40.0 mg/kg/injection, schedule: Q01DX009 (ip), vehicle: saline sonified) was 103 % of control; the T/C (dose: 80.0 mg/kg/injection, schedule: Q01DX009 (ip), vehicle: saline sonified) was 107 % of control.

For the compound `Nc1nc2ncc(CNc3ccc(C(=O)NC(CCC(=O)O)C(=O)O)cc3)nc2c(=O)[nH]1` (centres undefined), the T/C under setting [3] was 100 % of control and 103 % of control; the T/C under setting [4] is 97 % of control and 106 % of control.

Take `CCOC(=O)n1cnc2ncnc(SC)c21`: the T/C (dose: 15.6 mg/kg/injection, schedule: Q01DX009 (ip), vehicle: saline) was 105 % of control; the T/C under setting [14] is 100 % of control; the T/C under setting [10] was 105 % of control; the T/C under setting [11] was 100 % of control.

On to `CC1=C2C(=CC(C)(C)[C@@H]2O)C(=O)[C@](C)(O)C12CC2`, for which the T/C is, setting by setting: (dose: 0.17 mg/kg/injection, schedule: Q01DX009 (ip), vehicle: saline) 110 % of control; (dose: 0.26 mg/kg/injection, schedule: Q01DX009 (ip), vehicle: saline) 106 % of control; (dose: 0.4 mg/kg/injection, schedule: Q01DX009 (ip), vehicle: saline) 106 % of control; (dose: 0.6 mg/kg/injection, schedule: Q01DX009 (ip), vehicle: saline) 106 % of control.

Turning to `C[C@]12C=CC(=O)C=C1CC[C@@H]1[C@@H]2C(=O)C[C@@]2(C)[C@H]1CC[C@]2(O)C(=O)CO`, the T/C is, setting by setting: under setting [3], 100 % of control; under setting [4], 100 % of control; under setting [6], 88 % of control.

With `C[n+]1c2ccccc2c(Nc2ccc(NS(=O)(=O)CCCCN=C(N)N)cc2)c2ccc(N)cc21`, the T/C (dose: 0.38 mg/kg/injection, schedule: Q01DX009 (ip), vehicle: water) was 115 % of control; the T/C (dose: 0.75 mg/kg/injection, schedule: Q01DX009 (ip), vehicle: water) was 158 % of control; the T/C (dose: 1.5 mg/kg/injection, schedule: Q01DX009 (ip), vehicle: water) was 151 % of control; the T/C (dose: 3.0 mg/kg/injection, schedule: Q01DX009 (ip), vehicle: water) is 113 % of control; the T/C (dose: 6.0 mg/kg/injection, schedule: Q01DX009 (ip), vehicle: water) was 101 % of control.

In the case of `O=C(O)CCCCSc1ncnc2nc[nH]c12`, the T/C (dose: 100.0 mg/kg/injection, schedule: Q01DX009 (ip), vehicle: saline with Tween-80) was 110 % of control; the T/C (dose: 200.0 mg/kg/injection, schedule: Q01DX009 (ip), vehicle: saline with Tween-80) is 103 % of control; the T/C (dose: 400.0 mg/kg/injection, schedule: Q01DX009 (ip), vehicle: saline with Tween-80) was 114 % of control.

As to `CN1Cc2c(ccc3c2OCO3)[C@@H]2[C@H](O)Cc3cc4c(cc3[C@@H]21)OCO4`, the T/C (dose: 62.5 mg/kg/injection, schedule: Q01DX009 (ip), vehicle: saline with Tween-80) is 107 % of control; the T/C (dose: 125.0 mg/kg/injection, schedule: Q01DX009 (ip), vehicle: saline with Tween-80) is 110 % of control; the T/C (dose: 250.0 mg/kg/injection, schedule: Q01DX009 (ip), vehicle: saline with Tween-80) was 117 % of control.

On to `CCOC(N)=O`, for which the T/C under setting [11] is 100 % of control, the T/C under setting [12] is 107 % of control and the T/C under setting [13] was 100 % of control.

`CO[C@H]1/C=C/O[C@@]2(C)Oc3c(C)c(O)c4c(O)c(c(/C=N/N5CCN(C)CC5)c(O)c4c3C2=O)NC(=O)/C(C)=C\C=C\[C@H](C)[C@H](O)[C@@H](C)[C@@H](O)[C@@H](C)[C@H](OC(C)=O)[C@@H]1C`: the T/C under setting [5] was 106 % of control, the T/C under setting [6] was 109 % of control and the T/C under setting [7] is 112 % of control.

With `CC(=O)[C@@]1(O)CC[C@H]2[C@@H]3C[C@H](C)C4=CC(=O)C=C[C@]4(C)[C@@]3(F)[C@@H](O)C[C@@]21C`, the T/C was 105 % of control under setting [3]; 106 % of control (dose: 12.5 mg/kg/injection, schedule: Q01DX009 (sc), vehicle: steriod suspending solution); 105 % of control under setting [4]; 103 % of control (dose: 25.0 mg/kg/injection, schedule: Q01DX009 (sc), vehicle: steriod suspending solution); 100 % of control under setting [5]; 100 % of control under setting [6].

For `O=C(N[C@H](CO)[C@H](O)c1ccc([N+](=O)[O-])cc1)C(Cl)Cl`, the T/C by setting is: under setting [10], 106 % of control and 114 % of control; under setting [11], 106 % of control and 107 % of control; under setting [12], 106 % of control and 117 % of control; under setting [13], 106 % of control and 107 % of control.

With `NC(Cc1ccc(N(CCCl)CCCl)cc1)C(=O)O` (centres undefined), the T/C (dose: 4.0 mg/kg/injection, schedule: Q01DX009 (ip), vehicle: saline) was 200 % of control and 268 % of control and 350 % of control.

Take `O=P1(N(CCCl)CCCl)NCCCO1` (centres undefined): the T/C was 93 % of control under setting [4] and 90 % of control under setting [6].

With `Nc1ncnc2c(C3OC(CO)C(O)C3O)[nH]nc12` (centres undefined), the T/C was 153 % of control (dose: 8.0 mg/kg/injection, schedule: Q01DX009 (ip), vehicle: saline); 113 % of control (dose: 16.0 mg/kg/injection, schedule: Q01DX009 (ip), vehicle: saline); 157 % of control under setting [14].

For the compound `Cc1c2oc3c(C)ccc(C(=O)N[C@@H]4C(=O)N[C@H](C(C)C)C(=O)N5CCC[C@H]5C(=O)N(C)CC(=O)N(C)[C@@H](C(C)C)C(=O)O[C@H]4C)c3nc-2c(C(=O)N[C@@H]2C(=O)N[C@H](C(C)C)C(=O)N3CCC[C@H]3C(=O)N(C)CC(=O)N(C)[C@@H](C(C)C)C(=O)O[C@H]2C)c(N)c1=O` (I: [aThr][dV]P[Sar][NMeV] / II: [aThr][dV]P[Sar][NMeV]; ester I:1-I:C, II:1-II:C; linker I:N-II:N via Actinocin(9to1)), the T/C runs as follows: under setting [8], 150 % of control and 165 % of control; under setting [9], 156 % of control and 164 % of control and 193 % of control; (dose: 0.1 mg/kg/injection, schedule: Q01DX009 (ip), vehicle: saline) 203 % of control; (dose: 0.2 mg/kg/injection, schedule: Q01DX009 (ip), vehicle: saline) 117 % of control.

Consider `CN1C=c2c3c(ccc2=C2C=CC4C=C5OCOC5=CC4=C21)OCO3` (centres undefined), for which the T/C was 103 % of control (dose: 1.0 mg/kg/injection, schedule: Q01DX009 (ip), vehicle: saline with Tween-80); 92 % of control (dose: 2.0 mg/kg/injection, schedule: Q01DX009 (ip), vehicle: saline with Tween-80); 96 % of control (dose: 4.0 mg/kg/injection, schedule: Q01DX009 (ip), vehicle: saline with Tween-80).
